This passage reports IC50 results from US20240417410A1, “TRICYCLIC COMPOUNDS FOR THE TREATMENT OF CANCER” (Hoffmann-La Roche Inc., priority 2023, published 2024).

The subject of one experiment is AGS cells (KRAS G12D). Put plainly: Cell viability assay (Cell Counting Kit-8, 3-day). In kind it is cell-based, human. The settings on record: Homo sapiens, 72 h, 72 hrs incubation. In outline:
(§1)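 72-hr compound treatment, 0.5% DMSO final; NCI-H358 seeded 5,000 cells/well, AGS and SW620 2,000 cells/well. Endpoint: CCK-8, 2-hr development, OD450 minus OD650.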
(Formazan colour is commonly taken as a measure of viable cells.)

Another experiment deals with SW620 cells (KRAS G12V). Put plainly: Cell viability assay (Cell Counting Kit-8, 3-day). The format is cell-based, human. Conditions: Homo sapiens, SW-620; SW620, 72 hrs incubation. In outline:
as §1

The test system of experiment [1] is NCI-H358 cells (KRAS G12C). Put plainly: Cell viability assay (Cell Counting Kit-8, 3-day). The settings on record: Homo sapiens, NCI-H358, 72 h, NCI-H358, 72 hrs incubation. The format is cell-based, human. In outline: as §1
Experiment [2] relates to phosphorylation of ERK, KRAS G12C in NCI-H358 cells. Put plainly: pERK inhibition assay. The format is cell-based. The settings on record: Homo sapiens, NCI-H358, 4 h. In outline: (§2)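 Phospho-ERK quantified by in-cell ELISA with TMB read-out at OD450 following 4 h compound exposure (final 0.5% DMSO). Cell lines were SW620 (KRAS G12V), AGS (G12D) and NCI-H358 (G12C), grown in RPMI-1640 with 10% FBS. A 4-parameter sigmoidal model gave the IC50.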

The subject of experiment [3] is phosphorylation of ERK, KRAS G12D in AGS cells. As to the kind of experiment: pERK inhibition assay. In kind it is cell-based. The settings on record: Homo sapiens, AGS, 4 h. A digest of the protocol: as §2
Experiment [4] deals with phosphorylation of ERK, KRAS G12V in SW620. As to the kind of experiment: pERK inhibition assay. In kind it is cell-based. Conditions: Homo sapiens, SW-620, 4 h, SW620 cells. In outline:
as §2

For another experiment, the target named is KRAS G12C-BRAF complex (Homo sapiens (Human), UniProt P01116+P62937, G12C). As to the kind of experiment: KRAS-BRAF with CYPA (500 nM) interaction assay (TR-FRET, Example 136). The format is biochemical. The settings on record: KRAS G12C-BRAF disruption. (In TR-FRET formats the signal depends on donor and acceptor labels being close together.)

SMILES strings stand for the structures.

Sequence of KRAS G12C-BRAF complex (P01116-2 other isoform, or with tags, fused parts or gaps G12C): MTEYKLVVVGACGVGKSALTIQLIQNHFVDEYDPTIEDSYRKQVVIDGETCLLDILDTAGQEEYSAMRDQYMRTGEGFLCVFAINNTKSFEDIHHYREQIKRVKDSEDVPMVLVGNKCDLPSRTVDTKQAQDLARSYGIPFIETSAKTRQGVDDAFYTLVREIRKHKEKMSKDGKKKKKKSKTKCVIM
Sequence of KRAS G12C-BRAF complex (P62937 whole entry): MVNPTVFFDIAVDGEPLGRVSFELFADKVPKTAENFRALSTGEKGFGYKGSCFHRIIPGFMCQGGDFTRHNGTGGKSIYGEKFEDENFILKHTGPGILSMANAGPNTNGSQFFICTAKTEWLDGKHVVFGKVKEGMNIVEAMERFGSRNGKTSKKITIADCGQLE

Usually IC50 stands for the concentration at which inhibition is half-maximal. Low values mean higher potency, high ones lower potency. Turning to `CO[C@@H](C)c1ncc(N2CCOCC2)cc1-c1c2c3cc(cc4c3n1CC(F)(F)C4)-c1csc(n1)C[C@H](NC(=O)[C@H]1C[C@@H]1C)C(=O)N1CCC[C@H](N1)C(=O)OCC(C)(C)C2` (atropisomer, axis not shown; (M)) [Example 75, (1S,2S)-N-[(7S,13S)-23,23-difluoro-(20M)-20-[2-[(1S)-1-methoxyethyl]-5-morpholino-3-pyridyl]-17,17-dimethyl-8,14-dioxo-15-oxa-4-thia-9,21,30,31-tetrazahexacyclo[23.3.1.1^2,5.1^9,13.0^19,27.0^21,26]hentriaconta-1 (28),2,5 (31),19,25 (29),26-hexaen-7-yl]-2-methyl-cyclopropanecarboxamide], the IC50 in the experiment on AGS cells (KRAS G12D) was determined as 58.7 nM; in the experiment with SW620 cells (KRAS G12V), 3.6 nM; in experiment [1], 20.2 nM; in experiment [2], 4.9 nM; in experiment [3], 23.6 nM; in experiment [4], 2.6 nM. Besides, the IC50 at KRAS G12C-BRAF complex is 29.7 nM.

Consider `CO[C@@H](C)c1ncc(N2CCOCC2)cc1-c1c2c3cc(cc4c3n1CC(F)(F)C4)-c1csc(n1)C[C@H](NC(=O)[C@H]1[C@H](C)[C@@H]1C)C(=O)N1CCC[C@H](N1)C(=O)OCC(C)(C)C2` (atropisomer, axis not shown; (M)) [Example 76, (1r,2S,3R)-N-[(7S,13S)-23,23-difluoro-(20M)-20-[2-[(1S)-1-methoxyethyl]-5-morpholino-3-pyridyl]-17,17-dimethyl-8,14-dioxo-15-oxa-4-thia-9,21,30,31-tetrazahexacyclo[23.3.1.1^2,5.1^9,13.0^19,27.0^21,26]hentriaconta-1 (28),2,5 (31), 19,25 (29),26-hexaen-7-yl]-2,3-dimethyl-cyclopropanecarboxamide], for which the IC50 was determined as 4.9 nM with AGS cells (KRAS G12D); 0.3 nM in the experiment on SW620 cells (KRAS G12V); 2.1 nM in experiment [1]; 0.7 nM in experiment [2]; 3.9 nM in experiment [3]; 0.2 nM in experiment [4]. Besides, at KRAS G12C-BRAF complex, the midpoint of inhibition, the IC50, lay at 9.1 nM.

On to `CO[C@@H](C)c1ncc(N2CCN(C)CC2)cc1-c1c2c3cc(cc4c3n1CC(F)(F)C4)-c1csc(n1)C[C@H](NC(=O)[C@H]1[C@H](C)[C@@H]1C)C(=O)N1CCC[C@H](N1)C(=O)OCC(C)(C)C2` (atropisomer, axis not shown; (M)) [Example 83], for which the IC50 turned out to be 9.2 nM in the experiment on AGS cells (KRAS G12D); 0.5 nM with SW620 cells (KRAS G12V); 3.1 nM in experiment [1]; 0.9 nM in experiment [2]; 6 nM in experiment [3]; 0.5 nM in experiment [4]. At KRAS G12C-BRAF complex, half-maximal inhibition (IC50) required 10.3 nM.

In the case of `CO[C@@H](C)c1ncc(N2CCN(CC(F)(F)F)CC2)cc1-c1c2c3cc(cc4c3n1CCO4)-c1csc(n1)C[C@H](NC(=O)[C@H]1[C@H](C)[C@@H]1C)C(=O)N1CCC[C@H](N1)C(=O)OCC(C)(C)C2` (atropisomer, axis not shown; (M)) [Example 85, (1r,2S,3R)-N-[(7S,13S)-(20M)-20-[2-[(1S)-1-methoxyethyl]-5-[4-(2,2,2-trifluoroethyl)piperazin-1-yl]-3-pyridyl]-17,17-dimethyl-8,14-dioxo-15,24-dioxa-4-thia-9,21,30,31-tetrazahexacyclo[23.3.1.1^2,5.1^9,13.0^19,27.0^21,26]hentriaconta-1 (28),2,5 (31),19,25 (29),26-hexaen-7-yl]-2,3-dimethyl-cyclopropanecarboxamide], the IC50 in the experiment on AGS cells (KRAS G12D) came out at 13 nM; with SW620 cells (KRAS G12V), 1 nM; in experiment [1] it was 9 nM; in experiment [2] it was 1.7 nM; in experiment [3], 5.6 nM; in experiment [4], 0.6 nM. The same molecule gave an IC50 at KRAS G12C-BRAF complex of 18.8 nM.

In the case of `CO[C@@H](C)c1ncc(N2CCN(CC(F)(F)F)CC2)cc1-c1c2c3cc(cc4c3n1CCC4)-c1csc(n1)C[C@H](NC(=O)[C@H]1[C@H](C)[C@@H]1C)C(=O)N1CCC[C@H](N1)C(=O)OCC(C)(C)C2` (atropisomer, axis not shown; (M)) [Example 86, (1r,2R,3S)-N-[(7S,13S)-(20M)-20-[2-[(1S)-1-methoxyethyl]-5-[4-(2,2,2-trifluoroethyl)piperazin-1-yl]-3-pyridyl]-17,17-dimethyl-8,14-dioxo-15-oxa-4-thia-9,21,30,31-tetrazahexacyclo[23.3.1.1^2,5.1^9,13.0^19,27.0^21,26]hentriaconta-1 (28),2,5 (31),19,25 (29),26-hexaen-7-yl]-2,3-dimethyl-cyclopropanecarboxamide], the IC50 in the experiment with AGS cells (KRAS G12D) is 45.2 nM; in the experiment with SW620 cells (KRAS G12V) it was 2.5 nM; in experiment [1], 14.1 nM; in experiment [2] it was 1.8 nM; in experiment [3], 15 nM; in experiment [4], 0.8 nM. This molecule also displayed an IC50 against KRAS G12C-BRAF complex of 17.9 nM.

In the case of `CO[C@@H](C)c1ncc(N2CCN(CC(F)(F)F)CC2)cc1-c1c2c3cc(cc4c3n1CC(F)(F)C4)-c1csc(n1)C[C@H](NC(=O)[C@H]1[C@H](C)[C@@H]1C)C(=O)N1CCC[C@H](N1)C(=O)OCC(C)(C)C2` (atropisomer, axis not shown; (M)) [Example 87, (1r,2S,3R)-N-[(7S,13S)-23,23-difluoro-(20M)-20-[2-[(1S)-1-methoxyethyl]-5-[4-(2,2,2-trifluoroethyl)piperazin-1-yl]-3-pyridyl]-17,17-dimethyl-8,14-dioxo-15-oxa-4-thia-9,21,30,31-tetrazahexacyclo[23.3.1.1^2,5.1^9,13.0^19,27.0^21,26]hentriaconta-1 (28),2,5 (31),19,25 (29),26-hexaen-7-yl]-2,3-dimethyl-cyclopropanecarboxamide], the IC50 amounted to 58 nM in the experiment with AGS cells (KRAS G12D); 4 nM in the experiment on SW620 cells (KRAS G12V); 30 nM in experiment [1]; 4.8 nM in experiment [2]; 40.6 nM in experiment [3]; 1.5 nM in experiment [4]. For the same molecule, at KRAS G12C-BRAF complex, the IC50 came out at 32.6 nM.

Regarding `CO[C@@H](C)c1ncc(N2CCOCC2)cc1-c1c2c3cc(cc4c3n1CCO4)-c1csc(n1)C[C@H](NC(=O)[C@H]1C[C@@H]1c1cncnc1)C(=O)N1CCC[C@H](N1)C(=O)OCC(C)(C)C2` (atropisomer, axis not shown; (M)) [Example 88, (1S,2S)-N-[(7S,13S)-(20M)-20-[2-[(1S)-1-methoxyethyl]-5-morpholino-3-pyridyl]-17,17-dimethyl-8,14-dioxo-15,24-dioxa-4-thia-9,21,30,31-tetrazahexacyclo[23.3.1.1^2,5.1^9,13.0^19,27.0^21,26]hentriaconta-1 (28),2,5 (31), 19,25 (29),26-hexaen-7-yl]-2-pyrimidin-5-yl-cyclopropanecarboxamide], the IC50 with AGS cells (KRAS G12D) turned out to be 4 nM; in the experiment on SW620 cells (KRAS G12V), 0.4 nM; in experiment [1], 2 nM; in experiment [2] it was 0.3 nM; in experiment [3] it was 1.4 nM; in experiment [4] it was 0.2 nM. This molecule also displayed a half-inhibitory concentration (IC50) against KRAS G12C-BRAF complex of 9.7 nM.

Take `CO[C@@H](C)c1ncc(N2CCOCC2)cc1-c1c2c3cc(cc4c3n1CCC4)-c1csc(n1)C[C@H](NC(=O)[C@H]1C[C@@H]1c1cccnc1)C(=O)N1CCC[C@H](N1)C(=O)OCC(C)(C)C2` (atropisomer, axis not shown; (M)) [Example 89, (1S,2S)-N-[(7S,13S)-(20M)-20-[2-[(1S)-1-methoxyethyl]-5-morpholino-3-pyridyl]-17,17-dimethyl-8,14-dioxo-15-oxa-4-thia-9,21,30,31-tetrazahexacyclo[23.3.1.1^2,5.1^9,13.0^19,27.0^21,26]hentriaconta-1 (28),2,5 (31), 19,25 (29),26-hexaen-7-yl]-2-(3-pyridyl)cyclopropanecarboxamide]: the IC50 with AGS cells (KRAS G12D) was 6 nM; in the experiment with SW620 cells (KRAS G12V), 0.3 nM; in experiment [1], 1.5 nM; in experiment [2] it was 0.6 nM; in experiment [3], 4.8 nM; in experiment [4], 0.4 nM. The molecule further yielded an IC50 against KRAS G12C-BRAF complex of 6 nM.

On to `CO[C@@H](C)c1ncc(N2CCN(CC(F)(F)F)CC2)cc1-c1c2c3cc(cc4c3n1CCC4)-c1csc(n1)C[C@H](NC(=O)[C@H]1C[C@@H]1c1cccnc1)C(=O)N1CCC[C@H](N1)C(=O)OCC(C)(C)C2` (atropisomer, axis not shown; (M)) [Example 90, (1S,2S)-N-[(7S,13S)-(20M)-20-[2-[(1S)-1-methoxyethyl]-5-[4-(2,2,2-trifluoroethyl)piperazin-1-yl]-3-pyridyl]-17,17-dimethyl-8,14-dioxo-15-oxa-4-thia-9,21,30,31-tetrazahexacyclo[23.3.1.1^2,5.1^9,13.0^19,27.0^21,26]hentriaconta-1 (28),2,5 (31), 19,25 (29),26-hexaen-7-yl]-2-(3-pyridyl)cyclopropanecarboxamide], for which the IC50 is 16.8 nM in the experiment on AGS cells (KRAS G12D); 0.8 nM in the experiment with SW620 cells (KRAS G12V); 3.3 nM in experiment [1]; 1.7 nM in experiment [2]; 9.4 nM in experiment [3]; 0.6 nM in experiment [4]. On KRAS G12C-BRAF complex, this molecule came in with an IC50 of 6.4 nM.
